The results in this text go back to PubChem BioAssay (NCI).

Molecules are shown by their SMILES.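 Exposure lasted 48 hours, with cells grown in 96-well plates and compounds tested at five concentrations. GI50 = concentration required for 50% inhibition of growth. TGI denotes the concentration required for complete inhibition of growth.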 Bounds are passed on as bounds.

Some test systems named below: ACHN renal; SW-620 colon; SK-OV-3 ovarian; UACC-62 melanoma; HL-60(TB) leukemia; RXF 393 renal; MCF7 breast; NCI-H460 lung; OVCAR-5 ovarian; HS 578T breast.
Experiment in all cases: NCI anticancer screen, dose series, 48 h

As to `Cc1noc(C)c1N=Nc1ccc2nonc2c1N`, the TGI in the experiment on ACHN renal, with SW-620 colon, in the experiment with SK-OV-3 ovarian, in the experiment on UACC-62 melanoma, with HL-60(TB) leukemia and in the experiment on RXF 393 renal was > 100 µM in each case. Besides, the TGI in the experiment with MCF7 breast, in the experiment with NCI-H460 lung and in the experiment with OVCAR-5 ovarian was > 100 µM each time.
As to `O=C(Cc1ccccc1)NN1C(=O)C(Cl)C1c1ccccc1` (stereo not drawn), the TGI in the experiment with ACHN renal, in the experiment on SW-620 colon, with SK-OV-3 ovarian, in the experiment on UACC-62 melanoma, with HL-60(TB) leukemia and in the experiment with RXF 393 renal was > 100 µM each time. Besides, the TGI in the experiment on NCI-H460 lung and in the experiment with OVCAR-5 ovarian was > 100 µM in each case.
As for `Oc1cccc2nc3cc(CN4CCOCC4)c(CN4CCOCC4)cc3nc12`, the TGI is > 100 µM in the experiment on ACHN renal; > 100 µM in the experiment with SW-620 colon; > 100 µM in the experiment on SK-OV-3 ovarian; 76.8 µM in the experiment on UACC-62 melanoma; > 100 µM in the experiment on HL-60(TB) leukemia; > 100 µM in the experiment with RXF 393 renal. For the same compound, the TGI with NCI-H460 lung and in the experiment on OVCAR-5 ovarian was > 100 µM in each case.
With `CCOc1ccc(C(c2c(O)c3ccccc3oc2=O)c2c(O)c3ccccc3oc2=O)cc1`, the TGI in the experiment on ACHN renal was > 100 µM; in the experiment on SW-620 colon, > 100 µM; in the experiment on SK-OV-3 ovarian it was > 100 µM; in the experiment with UACC-62 melanoma it was > 100 µM; with HL-60(TB) leukemia, 50.2 µM; with HS 578T breast, > 100 µM. For the same compound, the TGI in the experiment on MCF7 breast and in the experiment on OVCAR-5 ovarian was > 100 µM each time.
As to `CC[S+](C)c1ccc(-c2c3nc(c(-c4ccc([S+](C)CC)cc4)c4ccc([nH]4)c(-c4ccc([S+](C)CC)cc4)c4nc(c(-c5ccc([S+](C)CC)cc5)c5ccc2[nH]5)C=C4)C=C3)cc1` (stereo not drawn), the TGI with ACHN renal is > 100 µM; in the experiment on SW-620 colon, > 100 µM; in the experiment on SK-OV-3 ovarian, 95.5 µM; in the experiment on UACC-62 melanoma it was 54.9 µM; with HL-60(TB) leukemia it was 49.9 µM; in the experiment with RXF 393 renal it was 63.3 µM. Also, the TGI in the experiment with NCI-H460 lung is > 100 µM; in the experiment with OVCAR-5 ovarian it was 65.8 µM.
`CCCCCCCCCCCCCCCCCCNC(=S)/N=C/c1c(O)cc(C)oc1=O`: the TGI was 65.4 µM in the experiment on ACHN renal; 96 µM in the experiment with SW-620 colon; 87.4 µM with SK-OV-3 ovarian; > 100 µM with UACC-62 melanoma; > 100 µM in the experiment on HL-60(TB) leukemia; > 100 µM in the experiment with MCF7 breast. The TGI in the experiment with NCI-H460 lung is > 100 µM; in the experiment on OVCAR-5 ovarian it was 37.3 µM.
Turning to `O=C(/C=C\c1ccc(OCCCCCC[P+](c2ccccc2)(c2ccccc2)c2ccccc2)cc1)c1ccc2c(c1)OCCO2`, the GI50 was 1.79 µM in the experiment on ACHN renal; 1.11 µM in the experiment with SW-620 colon; 1.58 µM in the experiment on SK-OV-3 ovarian; 0.326 µM in the experiment with HL-60(TB) leukemia; 0.827 µM in the experiment on HS 578T breast; 1.01 µM in the experiment with NCI-H460 lung. Further, the TGI was found to be 3.29 µM in the experiment on ACHN renal; 2.55 µM in the experiment with SW-620 colon; 3.88 µM in the experiment on SK-OV-3 ovarian; 1.3 µM in the experiment with HL-60(TB) leukemia; 5.02 µM with HS 578T breast; 2.5 µM with NCI-H460 lung.
As to `CCc1c(-c2coc(CC/C(C)=C/c3ccccc3)n2)oc(OC)c(C)c1=O`, the TGI with ACHN renal was > 71.4 µM; in the experiment on SW-620 colon, > 44.7 µM; in the experiment with SK-OV-3 ovarian, > 100 µM; in the experiment on UACC-62 melanoma it was > 53 µM; in the experiment with HL-60(TB) leukemia, 97.9 µM; with NCI-H460 lung, > 100 µM. For the same compound, the TGI in the experiment on OVCAR-5 ovarian is > 100 µM.
In the case of `CCOC(=O)CCc1c(C)c2c(O)cc(O)cc2oc1=O`, the TGI with SW-620 colon, with SK-OV-3 ovarian, with UACC-62 melanoma, in the experiment on HL-60(TB) leukemia, with RXF 393 renal and in the experiment on MCF7 breast was > 100 µM in each case. Further, the TGI with NCI-H460 lung and in the experiment on OVCAR-5 ovarian was > 100 µM in each case.
As to `[N-]=[N+]=NC(c1cn(C2CC(O)C(CO)O2)c(=O)[nH]c1=O)C(I)I` (stereo not drawn), the TGI in the experiment with ACHN renal, in the experiment with SW-620 colon, with SK-OV-3 ovarian, with UACC-62 melanoma, in the experiment on HL-60(TB) leukemia and in the experiment on RXF 393 renal was > 100 µM throughout. Further, the TGI in the experiment on NCI-H460 lung and with OVCAR-5 ovarian was > 100 µM in each case.
Consider `CC1(C)CC(=O)C2=C(C1)N(c1ccccc1)C1(O)C=CC(=O)C3=C(O)c4ccccc4C(=O)C321` (stereo not drawn), for which the TGI in the experiment with ACHN renal is 46.2 µM; in the experiment with SK-OV-3 ovarian, > 100 µM; with UACC-62 melanoma, 63.5 µM; in the experiment on HL-60(TB) leukemia, > 100 µM; in the experiment on RXF 393 renal it was 39.6 µM; with MCF7 breast it was > 100 µM. Moreover, the TGI is 83.9 µM in the experiment with NCI-H460 lung and > 100 µM in the experiment on OVCAR-5 ovarian.
In the case of `Cc1ccc(-c2nc3n(c2/C=N\N=C(N)N)CCS3)cc1`, the TGI in the experiment on ACHN renal was 28.2 µM; in the experiment on SW-620 colon, 30.8 µM; in the experiment on SK-OV-3 ovarian, 29 µM; in the experiment with UACC-62 melanoma, 32.1 µM; in the experiment with HL-60(TB) leukemia it was 78.3 µM; with HS 578T breast, 41.4 µM. The TGI with RXF 393 renal amounted to 29.6 µM; in the experiment on NCI-H460 lung it was 32 µM; with OVCAR-5 ovarian, 30.1 µM.
Consider `CNc1nc(=O)c(C#N)c(-c2ccc(C)cc2)s1`, for which the TGI in the experiment on ACHN renal, with SW-620 colon, in the experiment on SK-OV-3 ovarian, with UACC-62 melanoma, in the experiment on HL-60(TB) leukemia and in the experiment on RXF 393 renal was > 100 µM each time. The TGI in the experiment on MCF7 breast, in the experiment on NCI-H460 lung and in the experiment on OVCAR-5 ovarian was > 100 µM in each case.
On to `Cc1ccc(N2C(=O)C(O)=C(C(=O)C(C)(C)C)C2c2ccc([N+](=O)[O-])cc2)cc1` (stereo not drawn), for which the TGI in the experiment on ACHN renal amounted to 45.9 µM; in the experiment on SK-OV-3 ovarian it was 57.2 µM; in the experiment on UACC-62 melanoma, 37.2 µM; with HL-60(TB) leukemia it was 33.9 µM; in the experiment with HS 578T breast, 45.3 µM; in the experiment on MCF7 breast, 37.6 µM. Moreover, the TGI with NCI-H460 lung is 30.5 µM; in the experiment on OVCAR-5 ovarian, > 100 µM.
